Key:
[1] = test system: LnCAP cells; experiment: Cell proliferation / viability assay (Sytox Green, AC50), 7 days treatment; assay type: cell-based; settings: Homo sapiens, LnCAP cell line (mHSPC, AR+ T877A), single agent
Description: (§1) The following cell lines were originally obtained from ATCC:
(§2) Cell line identification was validated using the CellCheck assay (IDEXX Bioanalytics, Westbrook, ME, USA). All cell lines were validated free of virus Mycoplasma contamination using the MycoSEQ assay (Thermo Fisher Scientific, Waltham, MA, USA) or STAT-Myco assay (IDEXX Bioanalytics). All cell lines were grown RPMI-1640 growth media (Corning 17-105-CV) supplemented with 10% fetal bovine serum (FBS) or, when indicated, 10% charcoal stripped FBS (ThermoFisher Scientific, 12676029) and 2 mM glutamine.
(§3) Cells in 384-well or 96-well plates were dosed using an Echo 555 (LabCyte, San Jose, CA, USA) or using the HP D300e Digital Dispenser (HP Life Science Dispensing), respectively. Live cell count pre- and post-treatment (7 days after treatment) was determined using CellTiter-Glo as per manufacturer's instructions (Promega, Madison, WI, USA; G7570).
(§4) Cell viability was determined with the Sytox Green assay as described in Davies 2012 and the AC50 calculated. The HSA (Highest Single Agent) Synergy Score was calculated according to Bernenbaum 1989.

[2] = test system: C4-2 cells; experiment: as above; assay type: cell-based; settings: C4-2 cell line (mCRPC, AR+, ARV7), single agent
Description: as §1, §2, §3, §4

C[C@]12CC[C@H](O)CC1=CC[C@@H]1[C@@H]2CC[C@]2(C)C(c3cccnc3)=CC[C@@H]12 [Abiraterone, abiraterone]
AC50 [1]: 4.94 µM
AC50 [2]: 2.81 µM

CCc1cc2ncc(CN3CCN(c4ccc(C(=O)NC)nc4)CC3)cc2[nH]c1=O [AZD5305, 5-{4-[(7-ethyl-6-oxo-5,6-dihydro-1,5-naphthyridin-3-yl)methyl]piperazin-1-yl}-N-methylpyridine-2-carboxamide]
AC50 [1]: > 1 µM
AC50 [2]: > 1 µM
